Results as given in patent US20070020183A1, “Perfluoroalkyl-containing complexes, process for their production as well as their use” (priority 2005, published 2007).

How the values were obtained:
[1] = test system: inflammatory muscle lesions and necrotic areas; assay: MRT visualization of inflammatory lesions and necrotic areas in rats; assay type: in vivo; conditions: i.v. 50 μmol of Gd/kg, T1-weighted turbo-spin-echo 1.5 T
Description: By way of example, the pictures of FIG. 3 show MR images of inflammatory muscle lesions as well as necrotic areas at different points in time after intravenous administration of 50 μmol of Gd/kg of body weight of gadolinium complex XIV (title substance of Example 4g) in rats. The inflammation/necrosis was induced by intravenous administration of Rose Bengal (20 mg/kg; 24 hours before the administration of contrast medium) and subsequent 20-minute irradiation with a xenon lamp.

[2] = in vivo; cited from earlier work

| Compound | MR signal in the central necrosis ([1]; 24 hours p.i.) | MR signal in inflammatorily altered tissue ([1]; up to 60 minutes p.i.) | LD50 [2] |
| --- | --- | --- | --- |
| CC(C(=O)NCC(=O)NCCCC[C@H](NC(=O)CO[C@H]1O[C@H](CO)[C@@H](O)[C@H](O)[C@@H]1O)C(=O)NCCCC(F)(F)C(F)(F)C(F)(F)C(F)(F)C(F)(F)C(F)(F)C(F)(C(F)(F)F)C(F)(F)F)N1CCN(CC(=O)[O-])CCN(CC(=O)[O-])CCN(CC(=O)[O-])CC1.[Gd+3] (stereo partly drawn) [Gadolinium complex XIV, Gadolinium complex of 6-N-[1,4,7-tris-(carboxylatomethyl)-1,4,7,10-tetraazacyclododecane-10-N-(pentanoyl-3-aza-4-oxo-5-methyl-5-yl)]-2-N-(1-O-α-d-carbonylmethylmannopyranose)-L-lysine-[(1H,1H,2H,2H-perfluoro-9-methyldecyl)-methyl]-amide] | delayed signal rise | strong signal rise | – |
| Mn-TPPS | – | – | approximately 0.5 mmol/kg |
